Tests used:
[1] = target: T1, CDK12 protein level in CAL-120 breast cancer cells (Homo sapiens, UniProt Q9NYV4); assay: CDK12 protein level: Protein Simple (CDK12, CAL-120); format: cell-based; conditions: CAL-120 cells, 18 h with compound, CDK12/HSP90 peak area ratio vs vehicle, median, read-out: CDK12 protein level in CAL-120 breast ca cells, DC50-[mol/l] (median)
T1 construct: endogenous in cells; host or cells: CAL-120 human breast cancer cells (DSMZ ACC 459)
Procedure, shortened: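 Cells grown 24 h, then treated with compounds for 18 h at 37° C against DMSO controls. Lysates (0.4 microgramms protein) run on Protein Simple 66-440 kDa size assay with CDK12 and HSP90 loading-control antibodies. CDK12/HSP90 peak-area ratios versus vehicle gave DC50 (50% reduction) by 4-parameter fit.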

CDK12/CycK = CDK12/CycK (Homo sapiens, UniProt Q9NYV4); assay: CDK12/CycK high ATP kinase assay (TR-FRET, 2 mM ATP); format: biochemical; conditions: 2 mM ATP (high ATP); median; read-out: CDK12/CyclinK, 2 mM ATP (high ATP), IC50-[mol/l] (median)
CDK12/CycK, sequence (Q9NYV4 with tags, fused parts or gaps): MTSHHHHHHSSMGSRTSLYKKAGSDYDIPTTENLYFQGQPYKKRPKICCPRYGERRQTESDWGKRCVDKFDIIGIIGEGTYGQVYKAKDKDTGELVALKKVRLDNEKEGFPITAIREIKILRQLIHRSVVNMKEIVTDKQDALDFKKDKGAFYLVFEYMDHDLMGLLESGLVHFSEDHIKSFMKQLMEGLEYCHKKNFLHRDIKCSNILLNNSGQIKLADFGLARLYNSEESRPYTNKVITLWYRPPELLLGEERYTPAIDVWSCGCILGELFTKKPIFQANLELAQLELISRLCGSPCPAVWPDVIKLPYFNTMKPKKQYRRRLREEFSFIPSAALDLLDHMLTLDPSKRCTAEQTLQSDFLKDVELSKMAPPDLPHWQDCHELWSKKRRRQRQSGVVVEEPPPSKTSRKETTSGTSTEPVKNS
CDK12/CycK, sequence (O75909 1-300 partner limits assumed): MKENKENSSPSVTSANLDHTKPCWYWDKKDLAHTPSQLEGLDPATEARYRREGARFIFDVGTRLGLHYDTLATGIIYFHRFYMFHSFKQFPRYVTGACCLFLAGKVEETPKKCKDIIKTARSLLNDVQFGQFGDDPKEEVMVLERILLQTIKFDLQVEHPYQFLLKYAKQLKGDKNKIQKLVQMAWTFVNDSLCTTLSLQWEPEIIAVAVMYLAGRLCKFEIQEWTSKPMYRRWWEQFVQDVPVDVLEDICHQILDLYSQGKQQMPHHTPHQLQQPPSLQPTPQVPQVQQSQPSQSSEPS
Procedure, shortened: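 His-tagged human CDK12/CycK (~0.75 nM) pre-incubated 15 min with compound, then 60 min at 22 °C with 2 mM ATP and 1 µM biotinylated peptide (HEPES pH 7.5, 20 mM MgCl2). EDTA stop; phospho-Ser62 antibody/Eu anti-rabbit and streptavidin-XL665 TR-FRET, 665/620 nm ratio normalised to give IC50.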

T1 sequence (Q9NYV4 whole entry): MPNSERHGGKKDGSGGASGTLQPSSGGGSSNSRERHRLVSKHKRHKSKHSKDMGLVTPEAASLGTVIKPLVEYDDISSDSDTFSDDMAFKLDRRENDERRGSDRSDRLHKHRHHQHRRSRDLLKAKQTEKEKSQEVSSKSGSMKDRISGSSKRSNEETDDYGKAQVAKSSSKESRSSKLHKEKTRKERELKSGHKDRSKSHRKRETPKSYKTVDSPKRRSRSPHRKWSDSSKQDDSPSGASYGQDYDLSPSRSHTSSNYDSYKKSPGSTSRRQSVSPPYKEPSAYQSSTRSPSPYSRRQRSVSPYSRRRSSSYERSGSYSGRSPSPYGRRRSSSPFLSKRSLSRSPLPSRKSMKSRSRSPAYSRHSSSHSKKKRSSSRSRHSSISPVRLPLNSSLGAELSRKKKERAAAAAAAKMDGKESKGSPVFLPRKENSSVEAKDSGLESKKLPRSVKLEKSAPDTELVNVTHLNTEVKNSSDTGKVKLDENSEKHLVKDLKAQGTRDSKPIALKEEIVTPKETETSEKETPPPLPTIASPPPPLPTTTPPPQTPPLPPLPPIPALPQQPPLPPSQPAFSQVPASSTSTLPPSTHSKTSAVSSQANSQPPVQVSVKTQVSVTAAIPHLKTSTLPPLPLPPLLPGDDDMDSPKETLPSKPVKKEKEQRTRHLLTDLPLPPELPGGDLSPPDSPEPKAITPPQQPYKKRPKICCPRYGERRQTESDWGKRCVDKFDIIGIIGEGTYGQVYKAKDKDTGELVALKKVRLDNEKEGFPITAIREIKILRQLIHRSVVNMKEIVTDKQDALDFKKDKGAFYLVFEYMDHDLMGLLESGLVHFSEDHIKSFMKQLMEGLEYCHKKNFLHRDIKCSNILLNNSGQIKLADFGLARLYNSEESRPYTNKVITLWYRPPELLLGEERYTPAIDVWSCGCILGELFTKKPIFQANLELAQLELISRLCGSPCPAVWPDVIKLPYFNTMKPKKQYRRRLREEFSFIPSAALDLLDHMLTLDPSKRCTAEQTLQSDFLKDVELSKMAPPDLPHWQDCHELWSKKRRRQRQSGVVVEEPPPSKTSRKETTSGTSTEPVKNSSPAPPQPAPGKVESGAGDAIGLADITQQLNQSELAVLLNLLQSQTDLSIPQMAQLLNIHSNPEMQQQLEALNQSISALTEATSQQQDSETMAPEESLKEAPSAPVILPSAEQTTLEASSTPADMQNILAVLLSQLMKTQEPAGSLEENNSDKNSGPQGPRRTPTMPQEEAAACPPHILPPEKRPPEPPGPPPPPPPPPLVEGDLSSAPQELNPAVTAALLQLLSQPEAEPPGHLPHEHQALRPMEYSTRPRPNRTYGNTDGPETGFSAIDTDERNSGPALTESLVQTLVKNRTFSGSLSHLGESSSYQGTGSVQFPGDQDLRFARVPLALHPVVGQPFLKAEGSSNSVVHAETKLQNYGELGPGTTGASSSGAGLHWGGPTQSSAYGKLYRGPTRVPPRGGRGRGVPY
T1 sequence (O75909 whole entry partner): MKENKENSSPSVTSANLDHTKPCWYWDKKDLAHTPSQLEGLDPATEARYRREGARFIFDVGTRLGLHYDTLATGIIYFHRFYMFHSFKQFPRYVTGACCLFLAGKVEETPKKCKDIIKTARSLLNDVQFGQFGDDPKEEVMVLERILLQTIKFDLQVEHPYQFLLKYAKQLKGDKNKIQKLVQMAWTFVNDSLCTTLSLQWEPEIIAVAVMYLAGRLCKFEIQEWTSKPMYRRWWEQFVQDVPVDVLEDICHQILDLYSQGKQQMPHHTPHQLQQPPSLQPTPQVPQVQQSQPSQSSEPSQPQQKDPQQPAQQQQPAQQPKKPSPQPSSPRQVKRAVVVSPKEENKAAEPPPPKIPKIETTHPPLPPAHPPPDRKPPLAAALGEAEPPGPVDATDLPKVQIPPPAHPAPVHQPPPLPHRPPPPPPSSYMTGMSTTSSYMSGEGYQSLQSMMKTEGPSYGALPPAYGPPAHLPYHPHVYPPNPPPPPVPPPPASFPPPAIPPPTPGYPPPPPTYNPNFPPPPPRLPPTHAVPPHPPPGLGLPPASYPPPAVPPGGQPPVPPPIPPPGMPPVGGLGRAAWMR

SMILES	DC50 [1]	IC50 (CDK12/CycK)
COc1cccc(-c2nnc(CNc3nc(N4CCOCC4)nc4c(Br)cnn34)[nH]2)c1 [Example 50, 8-bromo-N-{[5-(3-methoxyphenyl)-4H-1,2,4-triazol-3-yl]methyl}-2-(morpholin-4-yl)pyrazolo[1,5-a][1,3,5]triazin-4-amine]	39.6 nM	2800 nM
Brc1cnn2c(NCc3nc4ccccc4[nH]3)nc(N3CC4(COC4)C3)nc12 [Example 48, N-[(1H-benzimidazol-2-yl)methyl]-8-bromo-2-(2-oxa-6-azaspiro[3.3]heptan-6-yl)pyrazolo[1,5-a][1,3,5]triazin-4-amine]	< 30 nM	> 5710 nM
Brc1cnn2c(NCc3nc4ccccc4[nH]3)nc(N3CCCCC3)nc12 [Example 46, N-[(1H-benzimidazol-2-yl)methyl]-8-bromo-2-(piperidin-1-yl)pyrazolo[1,5-a][1,3,5]triazin-4-amine]	< 30 nM	3330 nM
Brc1cnn2c(NCc3nnc(-c4ccccn4)[nH]3)nc(N3CCOCC3)nc12 [Example 54, 8-bromo-2-(morpholin-4-yl)-N-{[5-(pyridin-2-yl)-4H-1,2,4-triazol-3-yl]methyl}pyrazolo[1,5-a][1,3,5]triazin-4-amine]	< 30 nM	5650 nM
Brc1cnn2c(NCc3nc4ccccc4[nH]3)nc(N3CCCC3)nc12 [Example 47, N-[(1H-benzimidazol-2-yl)methyl]-8-bromo-2-(pyrrolidin-1-yl)pyrazolo[1,5-a][1,3,5]triazin-4-amine]	58.9 nM	7190 nM
